Reference: patent EP0823908B1, “PYRIDO[2,3-d]PYRIMIDINES FOR INHIBITING PROTEIN TYROSINE KINASE MEDIATED [sequence] PROLIFERATION” (Warner-Lambert Company LLC, priority 1995, dated 1996)

Key:
[1] = biological target: T1, Human EGF receptor tyrosine kinase (Homo sapiens, UniProt P00533); experiment: EGF receptor tyrosine kinase enzyme assay (substrate peptide phosphorylation); assay type: biochemical; settings: read-out: EGF-FL IC50
T1 construct: Human EGF receptor tyrosine kinase was isolated from A431 epidermoid carcinoma cells; endogenous in cells; host or cells: A431 epidermoid carcinoma cells

PDGF receptor = PDGF receptor autophosphorylation in rat aorta smooth muscle cells; assay type: cell-based; settings: PDGF-BB 30 ng/mL for 5 minutes after 2 hours with compound; read-out: Inhibition of PDGF-Stimulated Receptor Auto Phosphorylation in Rat Aortic Smooth Muscle Cells (IC50)
Protocol: Rat aorta smooth muscle cells (RASMC) were isolated from the thoracic aorta of rats and explanted according to the method of Ross, J. Cell. Biol., 30:172-186 (1971). Cells were grown in Dulbecco's modified Eagle's medium (DMEM, Gibco) containing 10% fetal calf serum (FBS, Hyclone, Logan, Utah), 1% glutamine (Gibco) and 1% penicillin/streptomycin (Gibco). Cells were identified as smooth muscle cells by their "hill and valley" growth pattern and by fluorescent staining with a monoclonal antibody specific for SMC ∝-actin (Sigma). RASMC were used between passages 5 and 20 for all experiments. Test compounds were prepared in dimethylsulfoxide (DMSO) in order to achieve consistency in the vehicle and to ensure compound solubility. Appropriate DMSO controls were simultaneously evaluated with the test compounds.
RASMC were grown to confluency in 100 mm dishes. Growth medium was removed and replaced with serum-free medium and cells were incubated at 37°C for an additional 24 hours. Test compounds were then added directly to the medium and cells incubated for an additional 2 hours. After 2 hours, PDGF-BB was added at a final concentration of 30 ng/mL for 5 minutes at 37°C to stimulated autophosphorylation of the PDGF receptor. Following growth factor treatment, the medium was removed, and cells were washed with cold phosphate-buffered saline and immediately lysed with 1 mL of lysis buffer (50 mM HEPES[pH 7.5], 150 mM NaCl, 10% glycerol, 1% Triton X-100, 1 mM EDTA, 1 mMEGTA, 50 mM NaF, 1 mM sodium orthovanadate, 30 mM p-nitrophenyl phosphate, 10 mM sodium pyrophosphate, 1 mM phenylmethyl sulfonyl fluoride, 10 µg/mL aprotinin, and 10 µg/mL leupeptin). Lysates were centrifuged at 10,000 × g for 10 minutes. […] Following the incubation, protein-A-sepharose beads were added for 2 hours with continuous mixing, and immune complexes bound to the beads washed four times with 1 mL lysis wash buffer. Immune complexes were solubilized in 30 µL of Laemmli sample buffer and electrophoresed in 4-20% SDS polyacrylamide gels. Following electrophoresis, separated proteins were transferred to nitrocellulose and immunoblotted with anti-phosphotyrosine antiserum. […] IC50 values were generated from the densitometric data.

[2] = biological target: T2, human FGF-1 (flg) receptor tyrosine kinase (Homo sapiens, UniProt P11362); experiment: FGF receptor tyrosine kinase assay (32P incorporation into glutamate-tyrosine co-polymer); assay type: biochemical; settings: read-out: FGFr-TK IC50
T2 construct: amplify a fragment of DNA that codes for the intracellular tyrosine kinase domain; made in house; host or cells: SF9 insect cells (baculovirus)
Method in brief: (§1)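 32P transfer from γ32P-ATP (50 µM ATP) to poly(Glu,Tyr) 4:1 was measured over 10 min at 25°C and counted after TCA precipitation onto filters, minus the no-enzyme background. Enzyme was baculovirus/SF9 lysate of the kinase domain, preincubated 10 min with inhibitor in Hepes pH 7.0, MnCl2, vanadate.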

[3] = biological target: T3, mouse PDGF-β receptor tyrosine kinase (Mus musculus, UniProt P05622); experiment: PDGF receptor tyrosine kinase assay (32P incorporation into glutamate-tyrosine co-polymer); assay type: biochemical; settings: read-out: PDGFr-TK IC50
T3 construct: amplify a fragment of DNA that codes for the intracellular tyrosine kinase domain; made in house; host or cells: SF9 insect cells (baculovirus)
Method in brief: as §1

C-src kinase = biological target: T4, C-src kinase (Homo sapiens, UniProt P12931); experiment: C-src kinase assay (poly GluTyr substrate); assay type: biochemical; settings: read-out: C-src TK IC50
T4 construct: made in house; host or cells: baculovirus infected insect cells

HCT-8 = experiment: Soft agar colony formation, human colon adenocarcinoma cells; assay type: cell-based; settings: HCT-8, 336 h, colony formation in 0.3% soft agar, generally 2 weeks, read-out: Inhibition of Human Colon Adenocarcinoma IC50, HCT-8
Protocol: (§2) Three such human cell lines were identified as HCT-8, SW-620, and HT-29. In a typical assay, the cells are suspended in 0.3% soft agar containing an invention compound at various concentration levels, and are plated into six-well plates, each plate containing a 1% agar plug. The cell plates are incubated at 37°C in a humidified carbon dioxide (5%) incubator, generally for 2 weeks. At the end of the incubation period, colonies of cells are detected by staining the wells with 1 mg/mL of p-iodonitrotetrazolium violet. The cells are counted on an optical colony counter. […] TABLE III. Inhibition of Human Colon Adenocarcinoma IC50 (µM)

SW-620 = experiment: as above; assay type: cell-based; settings: SW-620, 336 h, colony formation in 0.3% soft agar, generally 2 weeks, read-out: Inhibition of Human Colon Adenocarcinoma IC50, SW-620
Protocol: as §2

HT-29 = experiment: as above; assay type: cell-based; settings: HT-29, 336 h, colony formation in 0.3% soft agar, generally 2 weeks, read-out: Inhibition of Human Colon Adenocarcinoma IC50, HT-29
Protocol: as §2

transplanted tumors = experiment: Transplanted tumor assay; assay type: in vivo; settings: F1 hybrid mice; compound generally by infusion by tail tether
Protocol: F1 hybrid mice were used in the assay. The mice receive ascites fluid or dilutions of tumor brei on Day 0. A sample of the inocula is incubated in thioglycolate media as a check for gross contamination of the tumor material. After all test animals are inoculated with tumors, they are randomized for the assay. Control animals receive vehicle, while treated animals receive an invention compound dissolved in the vehicle, generally by infusion by tail tether. All animals are monitored daily for acute toxicity and other clinical signs. Survival is checked daily for the control group and treated group. The assay generally is continued for 60 days, at which time all surviving animals are euthanized.

T1 sequence (P00533 25-1210): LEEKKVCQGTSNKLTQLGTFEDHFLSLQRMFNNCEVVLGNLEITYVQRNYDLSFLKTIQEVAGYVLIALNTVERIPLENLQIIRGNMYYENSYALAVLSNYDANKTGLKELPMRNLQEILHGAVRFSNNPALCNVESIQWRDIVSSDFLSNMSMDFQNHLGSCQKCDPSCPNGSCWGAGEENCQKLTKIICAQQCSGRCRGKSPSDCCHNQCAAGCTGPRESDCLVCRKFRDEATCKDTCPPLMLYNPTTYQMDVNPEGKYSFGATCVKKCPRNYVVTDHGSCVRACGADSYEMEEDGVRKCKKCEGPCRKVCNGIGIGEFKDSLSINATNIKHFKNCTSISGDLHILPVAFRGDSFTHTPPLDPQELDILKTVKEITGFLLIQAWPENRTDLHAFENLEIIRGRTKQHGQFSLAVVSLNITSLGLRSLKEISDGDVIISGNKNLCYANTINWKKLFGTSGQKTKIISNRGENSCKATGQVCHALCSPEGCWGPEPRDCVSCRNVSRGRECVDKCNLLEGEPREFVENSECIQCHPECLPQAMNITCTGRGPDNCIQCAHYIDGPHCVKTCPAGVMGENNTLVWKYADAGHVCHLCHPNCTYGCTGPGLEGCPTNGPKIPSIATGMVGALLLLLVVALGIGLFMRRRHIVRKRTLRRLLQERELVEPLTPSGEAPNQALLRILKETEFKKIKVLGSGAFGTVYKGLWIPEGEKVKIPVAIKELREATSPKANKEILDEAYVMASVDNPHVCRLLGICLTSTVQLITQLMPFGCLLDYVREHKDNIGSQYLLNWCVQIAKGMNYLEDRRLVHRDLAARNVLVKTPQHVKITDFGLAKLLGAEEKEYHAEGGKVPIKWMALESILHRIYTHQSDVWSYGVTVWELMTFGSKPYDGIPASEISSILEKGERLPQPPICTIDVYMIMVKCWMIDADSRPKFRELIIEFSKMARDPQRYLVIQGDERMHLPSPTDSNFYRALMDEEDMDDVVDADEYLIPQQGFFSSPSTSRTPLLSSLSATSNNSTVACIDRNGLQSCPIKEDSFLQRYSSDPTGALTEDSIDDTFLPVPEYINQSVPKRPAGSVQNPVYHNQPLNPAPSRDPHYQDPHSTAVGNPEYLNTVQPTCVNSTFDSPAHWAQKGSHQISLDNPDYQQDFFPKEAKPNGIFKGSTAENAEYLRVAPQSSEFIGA
T2 sequence (P11362 478-767 limits assumed): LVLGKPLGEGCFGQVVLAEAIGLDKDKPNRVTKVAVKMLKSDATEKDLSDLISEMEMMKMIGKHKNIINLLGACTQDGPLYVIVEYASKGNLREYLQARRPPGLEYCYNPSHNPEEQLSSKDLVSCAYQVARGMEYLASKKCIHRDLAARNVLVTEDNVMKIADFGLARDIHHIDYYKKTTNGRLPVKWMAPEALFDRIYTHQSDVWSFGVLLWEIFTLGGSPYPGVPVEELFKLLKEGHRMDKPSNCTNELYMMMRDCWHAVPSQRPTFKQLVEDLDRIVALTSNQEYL
T3 sequence (P05622 599-961 limits assumed): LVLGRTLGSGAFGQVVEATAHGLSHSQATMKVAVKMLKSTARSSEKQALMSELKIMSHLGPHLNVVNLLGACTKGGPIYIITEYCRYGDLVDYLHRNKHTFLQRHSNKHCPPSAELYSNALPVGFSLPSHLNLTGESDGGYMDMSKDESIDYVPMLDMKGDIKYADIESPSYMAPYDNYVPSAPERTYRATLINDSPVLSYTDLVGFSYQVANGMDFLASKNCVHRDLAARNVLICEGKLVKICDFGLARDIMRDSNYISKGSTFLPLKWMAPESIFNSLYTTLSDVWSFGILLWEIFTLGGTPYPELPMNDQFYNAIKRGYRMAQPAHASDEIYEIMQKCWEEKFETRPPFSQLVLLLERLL
T4 sequence (P12931 whole entry): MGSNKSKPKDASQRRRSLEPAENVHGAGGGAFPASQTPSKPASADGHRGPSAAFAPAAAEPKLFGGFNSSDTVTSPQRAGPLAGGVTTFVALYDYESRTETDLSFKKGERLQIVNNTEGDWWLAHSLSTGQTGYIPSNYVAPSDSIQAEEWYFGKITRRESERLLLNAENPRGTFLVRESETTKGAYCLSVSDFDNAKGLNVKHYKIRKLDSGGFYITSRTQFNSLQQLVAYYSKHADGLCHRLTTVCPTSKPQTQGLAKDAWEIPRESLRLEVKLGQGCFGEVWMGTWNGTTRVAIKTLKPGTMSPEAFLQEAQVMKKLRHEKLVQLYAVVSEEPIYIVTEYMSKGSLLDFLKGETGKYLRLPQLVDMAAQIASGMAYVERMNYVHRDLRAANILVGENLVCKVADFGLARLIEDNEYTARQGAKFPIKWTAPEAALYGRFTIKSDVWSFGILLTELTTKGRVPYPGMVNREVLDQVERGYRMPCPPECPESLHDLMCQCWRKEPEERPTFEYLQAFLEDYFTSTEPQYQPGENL

| IC50 [1] [nM] | IC50 (PDGF receptor) [nM] | IC50 [2] [nM] | IC50 [3] [nM] | IC50 (C-src kinase) [nM] | IC50 (HCT-8) [nM] | IC50 (SW-620) [nM] | IC50 (HT-29) [nM] | Structure (SMILES) | life span of animals infected with transplanted tumors (transplanted tumors) |
| --- | --- | --- | --- | --- | --- | --- | --- | --- | --- |
| 5600 | 9400 | – | – | – | – | – | – | Cn1c(=O)c(-c2c(Cl)cccc2Cl)cc2cnc(N)nc21 [Example 12, 2-Amino-6-(2,6-dichlorophenyl)-8-methyl-pyrido[2,3-d]-pyrimidin-7(8H)-one] | – |
| – | 60 | 2200 | 1800 | 59 | 110 | 120 | 430 | Cn1c(=O)c(-c2c(Cl)cccc2Cl)cc2cnc(Nc3cccc(Br)c3)nc21 [Example 55, 2-(3-Bromophenylamino)-6-(2,6-dichlorophenyl)-8-methyl-8H-pyrido[2,3-d]pyrimidin-7-one] | – |
| 119 | 13 | 159 | 71 | 23 | 170 | 130 | 380 | Cn1c(=O)c(-c2c(Cl)cccc2Cl)cc2cnc(Nc3ccncc3)nc21 [Example 58, 6-(2,6-Dichlorophenyl)-8-methyl-2-(pyridin-4-ylamino)-8H-pyrido[2,3-d]pyrimidin-7-one] | – |
| – | – | – | – | – | – | – | – | CCN(CC)CCOc1ccc(Nc2ncc3cc(-c4c(Cl)cccc4Cl)c(=O)n(C)c3n2)cc1 [Example 80, 6-(2,6-Dichlorophenyl)-2-[4-(2-diethylaminoethoxy)-phenylamino]-8-methyl-8H-pyrido[2,3-d]pyrimidin-7-one] | increased the life span |
